US11780845B2 (Relay Therapeutics, Inc., priority 2019, dated 2023)

Target: FGFR2 (Homo sapiens (Human), UniProt P21802)
Experiment: FGFR2 Biochemical Caliper Assay
Conditions: not given
Method: Compounds of the present invention were also tested in a FGFR2 Biochemical Caliper Assay. Compounds were prepared in 10 mM DMSO solution and serially diluted into 11 concentrations by 3-fold dilution. […] 5 uL of ATP solution (100 uM) was added to start the reaction and the plate was incubated for 90 minutes, then 70 uL of stopping buffer (0.5M EDTA) was added to terminate the reaction. Each well was analyzed using EZ reader.

Chain of FGFR2 (P21802 22-821): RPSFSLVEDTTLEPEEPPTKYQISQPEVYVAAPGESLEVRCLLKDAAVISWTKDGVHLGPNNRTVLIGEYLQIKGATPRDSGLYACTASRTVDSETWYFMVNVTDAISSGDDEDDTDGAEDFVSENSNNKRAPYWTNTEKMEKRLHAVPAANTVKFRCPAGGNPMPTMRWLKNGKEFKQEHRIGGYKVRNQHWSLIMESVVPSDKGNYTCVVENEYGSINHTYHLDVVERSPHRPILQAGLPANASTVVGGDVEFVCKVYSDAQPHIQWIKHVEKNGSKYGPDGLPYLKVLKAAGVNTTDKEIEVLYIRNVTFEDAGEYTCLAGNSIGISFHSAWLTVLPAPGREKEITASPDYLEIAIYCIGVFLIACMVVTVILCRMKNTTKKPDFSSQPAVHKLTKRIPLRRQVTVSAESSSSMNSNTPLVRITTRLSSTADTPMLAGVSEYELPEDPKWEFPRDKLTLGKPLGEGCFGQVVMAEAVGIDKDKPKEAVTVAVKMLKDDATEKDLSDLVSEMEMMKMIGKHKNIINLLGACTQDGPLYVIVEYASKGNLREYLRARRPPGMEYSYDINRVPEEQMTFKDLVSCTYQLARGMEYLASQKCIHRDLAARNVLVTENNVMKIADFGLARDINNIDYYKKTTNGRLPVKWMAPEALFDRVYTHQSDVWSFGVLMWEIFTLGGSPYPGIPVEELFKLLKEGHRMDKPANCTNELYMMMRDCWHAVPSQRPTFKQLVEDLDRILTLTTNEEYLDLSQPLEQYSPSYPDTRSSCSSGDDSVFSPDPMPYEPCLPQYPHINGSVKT

IC50	Compound
< 100 nM	C=CC(=O)Nc1ccc(-c2c(-c3ccc(Oc4cccc(Cl)n4)c(OC)c3)c3c(N)ncnc3n2C)cc1 [Example 35]
< 100 nM	CC#CC(=O)Nc1ccc(-c2[nH]c3ncnc(N)c3c2-c2ccc(Oc3cccc(C)n3)c(OC)c2)cc1 [Example 787]
100 to 250 nM	C=CC(=O)N1CCC=C(c2c(-c3ccc(Oc4cccc(C)n4)cc3)c3c(N)ncnc3n2C)C1 [Example 665]
< 100 nM	C=CC(=O)N1CCC(n2cc(-c3c(-c4ccc(Oc5cccc(C)n5)cc4)c4c(N)ncnc4n3C)c(C)n2)CC1 [Example 632]
< 100 nM	Cn1c(-c2ccc(NC(=O)C3=CCC3)cc2)c(-c2ccc(C(=O)NCC3CCC3)c(F)c2)c2c(N)ncnc21 [Example 590]
250 to 1000 nM	C=CC(=O)N1CCC(c2c(-c3ccc(OCC(F)(F)F)nc3)c3c(N)ncnc3n2C)C1 (centres unmarked) [Example 733]
< 100 nM	C=CC(=O)Nc1ccc(-c2c(-c3ccc(Oc4ncc(F)cn4)c(OC)c3)c3c(N)ncnc3n2C)cc1 [Example 101]
< 100 nM	C=CC(=O)Nc1ccc(-c2c(-c3ccc(Cn4nc(C)cc4C)cc3)c3c(N)ncnc3n2C)cc1 [Example 260]
250 to 1000 nM	C=CC(=O)N1CCC(c2c(-c3ccc(C(=O)N4CCC(F)(F)C4)cc3)c3c(N)ncnc3n2C)C1 (centres unmarked) [Example 718]
250 to 1000 nM	C=C(C)C(=O)Nc1ccc(-c2c(C3=CC[C@@H](Oc4cccc(C)n4)CC3)c3c(N)ncnc3n2C)cc1 (single isomer, unassigned) [Example 451]
1000 to 100000 nM	C=CC(=O)N1CCC(c2c(-c3cnn(C4CCCC4)c3)c3c(N)ncnc3n2C)C1 (centres unmarked) [Example 726]
250 to 1000 nM	C=C(C)C(=O)Nc1ccc(-c2c(-c3ccc(Sc4ncccn4)cc3)c3c(N)ncnc3n2C)cc1 [Example 69]
100 to 250 nM	C=CC(=O)N1CCC(c2c(-c3ccc(OC4CC4)cc3)c3c(N)ncnc3n2C)C1 (centres unmarked) [Example 756]
250 to 1000 nM	C=C(C)C(=O)Nc1ccc(-c2c(-c3ccc(Cn4nc(C)cc4C)cc3)c3c(N)ncnc3n2C)cc1 [Example 140]
1000 to 100000 nM	C=CC(=O)N1CCC(c2c(-c3ccc(NC4CCOCC4)cc3)c3c(N)ncnc3n2C)C1 (centres unmarked) [Example 773]
< 100 nM	C=CC(=O)N1CCC(c2c(-c3ccc(Oc4ccccn4)cc3)c3c(N)ncnc3n2C)C1 (centres unmarked) [Example 689]
1000 to 100000 nM	C=CC(=O)N1CCC(c2c(-c3cnn(C4CCOC4)c3)c3c(N)ncnc3n2C)C1 (centres unmarked) [Example 736]
< 100 nM	C=C(C)C(=O)Nc1ccc(-c2c(-c3ccc(C(=O)NCC(F)(F)F)c(OC)c3)c3c(N)ncnc3n2C)cc1 [Example 568]
1000 to 100000 nM	C=CC(=O)N1CCC(c2c(-c3cnn(CC(F)(F)F)c3)c3c(N)ncnc3n2C)C1 (centres unmarked) [Example 723]
< 100 nM	C=C(C)C(=O)Nc1ccc(-c2c(C3=CC[C@@H](C(=O)N4CC5CCC(C5)C4)CC3)c3c(N)ncnc3n2C)cc1 [Example 419]
1000 to 100000 nM	C=C(C)C(=O)Nc1ccc(-c2c(-c3ccc(Oc4cnn(C)c4)cc3)c3c(N)ncnc3n2C)cc1 [Example 541]
< 100 nM	C=C(C)C(=O)Nc1ccc(-c2c(-c3ccc(C(=O)NCC(F)F)cc3)c3c(N)ncnc3n2C)cc1 [Example 305]
< 100 nM	C=CC(=O)N1CC[C@H](c2c(-c3ccc(Oc4cccc(C)n4)cc3)c3c(N)ncnc3n2C)C1 (single isomer, unassigned) [Example 712]
< 100 nM	C=C(C)C(=O)Nc1ccc(-c2c(-c3ccc(C(=O)NCC(C)(C)O)cc3)c3c(N)ncnc3n2C)cc1 [Example 288]
< 100 nM	C=C(C)C(=O)Nc1ccc(-c2c(-c3ccc(Oc4nccc(C)n4)cc3)c3c(N)ncnc3n2C)c(F)c1 [Example 426]
< 100 nM	C=CC(=O)N1CCC(c2c(-c3ccc(Oc4ccc(Cl)cn4)cc3)c3c(N)ncnc3n2C)C1 (centres unmarked) [Example 706]
250 to 1000 nM	C=C(C)C(=O)N1CCC(c2c(-c3ccc(Oc4cccc(C)n4)cc3)c3c(N)ncnc3n2C)CC1 [Example 693]
250 to 1000 nM	C/C(=C\CN(C)C)C(=O)N1CC(n2cc(-c3c(-c4ccc(Oc5cccc(C)n5)cc4)c4c(N)ncnc4n3C)cn2)C1 [Example 671]

Tested on: SNU16 cells
Experiment: SNU16 Cancer Cell Line Proliferation Assay
Assay type: cell-based
Conditions: Homo sapiens; SNU-16 cells
How it was run: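 Proliferation read-out: CellTiter Glo chemiluminescence after 96 h compound exposure. Test compounds, serially diluted 3-fold over 11 points from a 10 mM DMSO stock, were added to SNU16 cells plated 24 h earlier at 37 degrees.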

IC50	Compound
≤ 100 nM	C=CC(=O)Nc1ccc(-c2c(-c3ccc(Oc4cccc(Cl)n4)c(OC)c3)c3c(N)ncnc3n2C)cc1 [Example 35]
≤ 100 nM	CC#CC(=O)Nc1ccc(-c2[nH]c3ncnc(N)c3c2-c2ccc(Oc3cccc(C)n3)c(OC)c2)cc1 [Example 787]
250 to 1000 nM	C=CC(=O)N1CCC=C(c2c(-c3ccc(Oc4cccc(C)n4)cc3)c3c(N)ncnc3n2C)C1 [Example 665]
≤ 100 nM	C=CC(=O)N1CCC(n2cc(-c3c(-c4ccc(Oc5cccc(C)n5)cc4)c4c(N)ncnc4n3C)c(C)n2)CC1 [Example 632]
≤ 100 nM	Cn1c(-c2ccc(NC(=O)C3=CCC3)cc2)c(-c2ccc(C(=O)NCC3CCC3)c(F)c2)c2c(N)ncnc21 [Example 590]
250 to 1000 nM	C=CC(=O)N1CCC(c2c(-c3ccc(OCC(F)(F)F)nc3)c3c(N)ncnc3n2C)C1 (centres unmarked) [Example 733]
≤ 100 nM	C=CC(=O)Nc1ccc(-c2c(-c3ccc(Oc4ncc(F)cn4)c(OC)c3)c3c(N)ncnc3n2C)cc1 [Example 101]
≤ 100 nM	C=CC(=O)Nc1ccc(-c2c(-c3ccc(Cn4nc(C)cc4C)cc3)c3c(N)ncnc3n2C)cc1 [Example 260]
250 to 1000 nM	C=CC(=O)N1CCC(c2c(-c3ccc(C(=O)N4CCC(F)(F)C4)cc3)c3c(N)ncnc3n2C)C1 (centres unmarked) [Example 718]
≤ 100 nM	C=C(C)C(=O)Nc1ccc(-c2c(C3=CC[C@@H](Oc4cccc(C)n4)CC3)c3c(N)ncnc3n2C)cc1 (single isomer, unassigned) [Example 451]
1000 to 100000 nM	C=CC(=O)N1CCC(c2c(-c3cnn(C4CCCC4)c3)c3c(N)ncnc3n2C)C1 (centres unmarked) [Example 726]
250 to 1000 nM	C=C(C)C(=O)Nc1ccc(-c2c(-c3ccc(Sc4ncccn4)cc3)c3c(N)ncnc3n2C)cc1 [Example 69]
≤ 100 nM	C=CC(=O)N1CCC(c2c(-c3ccc(OC4CC4)cc3)c3c(N)ncnc3n2C)C1 (centres unmarked) [Example 756]
100 to 250 nM	C=C(C)C(=O)Nc1ccc(-c2c(-c3ccc(Cn4nc(C)cc4C)cc3)c3c(N)ncnc3n2C)cc1 [Example 140]
1000 to 100000 nM	C=CC(=O)N1CCC(c2c(-c3ccc(NC4CCOCC4)cc3)c3c(N)ncnc3n2C)C1 (centres unmarked) [Example 773]
≤ 100 nM	C=CC(=O)N1CCC(c2c(-c3ccc(Oc4ccccn4)cc3)c3c(N)ncnc3n2C)C1 (centres unmarked) [Example 689]
1000 to 100000 nM	C=CC(=O)N1CCC(c2c(-c3cnn(C4CCOC4)c3)c3c(N)ncnc3n2C)C1 (centres unmarked) [Example 736]
≤ 100 nM	C=C(C)C(=O)Nc1ccc(-c2c(-c3ccc(C(=O)NCC(F)(F)F)c(OC)c3)c3c(N)ncnc3n2C)cc1 [Example 568]
1000 to 100000 nM	C=CC(=O)N1CCC(c2c(-c3cnn(CC(F)(F)F)c3)c3c(N)ncnc3n2C)C1 (centres unmarked) [Example 723]
≤ 100 nM	C=C(C)C(=O)Nc1ccc(-c2c(C3=CC[C@@H](C(=O)N4CC5CCC(C5)C4)CC3)c3c(N)ncnc3n2C)cc1 [Example 419]
250 to 1000 nM	C=C(C)C(=O)Nc1ccc(-c2c(-c3ccc(Oc4cnn(C)c4)cc3)c3c(N)ncnc3n2C)cc1 [Example 541]
≤ 100 nM	C=C(C)C(=O)Nc1ccc(-c2c(-c3ccc(C(=O)NCC(F)F)cc3)c3c(N)ncnc3n2C)cc1 [Example 305]
≤ 100 nM	C=CC(=O)N1CC[C@H](c2c(-c3ccc(Oc4cccc(C)n4)cc3)c3c(N)ncnc3n2C)C1 (single isomer, unassigned) [Example 712]
250 to 1000 nM	C=C(C)C(=O)Nc1ccc(-c2c(-c3ccc(C(=O)NCC(C)(C)O)cc3)c3c(N)ncnc3n2C)cc1 [Example 288]
≤ 100 nM	C=C(C)C(=O)Nc1ccc(-c2c(-c3ccc(Oc4nccc(C)n4)cc3)c3c(N)ncnc3n2C)c(F)c1 [Example 426]
≤ 100 nM	C=CC(=O)N1CCC(c2c(-c3ccc(Oc4ccc(Cl)cn4)cc3)c3c(N)ncnc3n2C)C1 (centres unmarked) [Example 706]
1000 to 100000 nM	C=C(C)C(=O)N1CCC(c2c(-c3ccc(Oc4cccc(C)n4)cc3)c3c(N)ncnc3n2C)CC1 [Example 693]
1000 to 100000 nM	C/C(=C\CN(C)C)C(=O)N1CC(n2cc(-c3c(-c4ccc(Oc5cccc(C)n5)cc4)c4c(N)ncnc4n3C)cn2)C1 [Example 671]
